Reference: patent publication US9718840B2, “Condensed 5-oxazolidinone derivative” (SUMITOMO DAINIPPON PHARMA CO., LTD., priority 2014, dated 2017)

Legend:
Human t-PA = target: T1, Human t-PA (Homo sapiens, UniProt P00750); assay: Enzyme selectivity evaluation test: t-PA; assay type: biochemical
T1 construct: purchased Calbiochem
Method: S-2288 (H-D-Ile-Pro-Arg-pNA.2HCl) was added as the substrate at a final concentration of 300 μmol/L. After progression of the reaction, the absorbance was measured at OD 405 nm.

[1] = system: Rabbit venous thrombus models; assay: Effect of combined use with antiplatelet drug using rabbit AVST model; assay type: in vivo; conditions: alone
Method: Rabbit venous thrombus models were prepared by a modification of the report of Wong et al. (Wong P C. et al., J. Pharmacol. Exp. Ther. 292: 351-357 (2000)). […] A tracheostomy tube was inserted to each rabbit, which was then ventilated using a respirator. For the intravenous administration of a test drug and blood collection, catheters were inserted to the right femoral vein and the right femoral artery, respectively. An arteriovenous shunt filled with saline was inserted to the carotid artery and the jugular vein. […] Also, 4-0 silk thread having a length of 5 cm was indwelled in the arteriovenous shunt. Blood was sent for 30 minutes from the carotid artery to the jugular vein via the arteriovenous shunt. The shunt was removed, and the weight of the silk thread covered with thrombus was measured. The weight of the silk thread measured before the experiment was subtracted from the measured weight, and the obtained value was used as a wet thrombus weight. One hour before the open of the arteriovenous shunt, the test drug or a vehicle was promptly intravenously administered (0.67 mL/kg) and then continuously intravenously administered (1 mL/kg/hr). The continuous injection was continued throughout the experiment. […] STA calcium chloride (manufactured by Roche Diagnostics K.K.) was added in an amount equal thereto, and the time required for coagulation was measured.

[2] = dose 0.5 + 0.75 mg/kg + mg/kg/h i.v.
[3] = dose 1.5 + 2.25 mg/kg + mg/kg/h i.v.

T1 sequence (P00750 36-562): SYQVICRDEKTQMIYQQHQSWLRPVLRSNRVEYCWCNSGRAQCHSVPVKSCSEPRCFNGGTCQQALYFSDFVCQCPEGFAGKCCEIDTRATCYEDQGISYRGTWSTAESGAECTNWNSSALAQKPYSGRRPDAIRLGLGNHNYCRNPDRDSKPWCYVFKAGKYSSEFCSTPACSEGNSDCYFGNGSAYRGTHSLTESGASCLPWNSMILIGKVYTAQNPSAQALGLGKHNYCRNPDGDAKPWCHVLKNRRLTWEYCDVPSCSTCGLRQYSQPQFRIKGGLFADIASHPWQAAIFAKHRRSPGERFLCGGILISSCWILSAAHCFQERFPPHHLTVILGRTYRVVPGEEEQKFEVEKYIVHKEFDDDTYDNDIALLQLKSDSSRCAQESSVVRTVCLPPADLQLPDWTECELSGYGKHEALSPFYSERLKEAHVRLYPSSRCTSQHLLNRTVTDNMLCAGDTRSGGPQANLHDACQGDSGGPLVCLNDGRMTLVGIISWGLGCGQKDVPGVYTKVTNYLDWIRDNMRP

SMILES: Cl.N[C@H](CF)[C@H]1CC[C@H](C(=O)N2CC[C@@H](C3CCCCC3)[C@H]2C(=O)Nc2ccc3[nH]c(C(=O)O)cc3c2)CC1 [Reference Example 2-6, 5-{[(3S)-1-({trans-4-[(1S)-1-Amino-2-fluoroethyl]cyclohexyl}carbonyl)-3-cyclohexyl-L-prolyl]amino}-1H-indole-2-carboxylic acid hydrochloride]
- IC50 (Human t-PA): > 10 µM
- PT (ratio) [1, 2]: 1.00 ± 0.02 ratio
- Thrombus weight [1, 2]: 66 ± 22 mg
- aPTT (ratio) [1, 2]: 1.59 ± 0.15 ratio
- PT (ratio) [1, 3]: 1.01 ± 0.00 ratio
- Thrombus weight [1, 3]: 36 ± 6 mg
- aPTT (ratio) [1, 3]: 1.84 ± 0.10 ratio
